Data from US5306819A, “Certain aryl a cycloalkyl fused imidazopyrazinols; and new class of GABA brain receptor ligands” (Neurogen Corporation, priority 1992, dated 1994).

Key:
[1] = tested on: GABA receptor; conditions: Tallman et al., 1978; cited from earlier work
[2] = biological target: GABAa receptor; experiment: assay for GABAa receptor activity: inhibition of 3H-RO15-1788 (3H-Flumazenil) binding to rat cortical tissue; conditions: 3H-RO15-1788 0.5 nM, 30 min at 4°
Protocol: The pharmaceutical utility of compounds of this invention are indicated by the following assay for GABAa receptor activity.
Assays are carried out as described in Thomas and Tallman (J. Bio. Chem. 156: 9838-9842, J. Neurosci. 3:433-440, 1983). Rat cortical tissue is dissected and homogenized in 25 volumes (w/v) of 0.05M Tris HCl buffer (pH 7.4 at 4° C.). The tissue homogenate is centrifuged in the cold (4°) at 20,000×g for 20'. The supernatant is decanted and the pellet is rehomogenized in the same volume of buffer and again centrifuged at 20,000×g. The supernatant is decanted and the pellet is frozen at -20° C. overnight. The pellet is then thawed and rehomogenized in 25 volumes (original wt/vol) of buffer and the procedure is carried out twice. The pellet is finally resuspended in 50 volumes (w/vol of 0.05M Tris HCl buffer (pH 7.4 at […]).
Incubations contain […] of tissue homogenate, […] of radioligand 0.5 nM (^3 H-RO15-1788 [^3 H-Flumazenil] specific activity 80 Ci/mmol), drug or blocker and buffer to a total volume of […]. Incubations are carried for 30 min at 4° then are rapidly filtered through GFB filters to separate free and bound ligand. Filters are washed twice with fresh 0.05M Tris HCl buffer (pH 7.4 at 4° C.) and counted in a liquid scintillation counter. […] diazepam is added to some tubes to determine nonspecific binding. Data are collected in triplicate determinations, averaged and % inhibition of total specific binding is calculated. Total Specific Binding=Total-Nonspecific. In some cases, the amounts of unlabeled drugs is varied and total displacement curves of binding are carried out. Data are converted to a form for the calculation of IC50 and Hill Coefficient (nH).

| Structure (SMILES) | Enhancement of benzodiazepine binding by GABA agonists is blocked [1] | IC50 [2] [nM] |
| --- | --- | --- |
| CN1CCc2cc3c(cc2[C@H]1[C@@H]1OC(=O)c2c1ccc1c2OCO1)OCO3 [(+) bicuculline] | blocked |  |
| CN1CCc2cc3c(cc2[C@@H]1[C@H]1OC(=O)c2c1ccc1c2OCO1)OCO3 [(-) bicuculline] | much less active |  |
| O=c1c(-c2ccccc2F)nc2c[nH]c3c(n1-2)CCCC3 [Compound 1, 2-(2-fluorophenyl)-imidazo-[1,2-a]-6,7,8,9-tetrahydroquinoxalin-1(5H)-one] |  | 11 |
| COc1ccc(-c2nc3c[nH]c4c(n-3c2=O)CCCC4)c(F)c1 [Compound 8, 2-(2-Fluoro-4-methoxyphenyl)-imidazo-[1,2-a]-6,7,8,9-tetrahydroquinoxalin-1(5H)-one] |  | 5.4 |
| COc1ccc(-c2nc3c[nH]c4c(n-3c2=O)CCCCC4)c(F)c1 [Compound 15, 2-(2-Fluoro-4-methoxyphenyl)-cyclohept[b]imidazo[2,1-f]pyrazin-1(5H)-one] |  | 13 |
| COc1ccc(-c2nc3c[nH]c4c(n-3c2=O)CCC4)c(F)c1 [Compound 16, 2-(2-Fluoro-4-methoxyphenyl)-cyclopent[b]imidazo[2,1-f]pyrazin-1(5H)-one] |  | 15 |
